Data from patent US8841257B2, “Inhibitors of STAT3 and uses thereof” (Board of Regents, The University of Texas System, priority 2009, dated 2014).
“Also recorded” adds a separate entry of the source.

Biological target: T1, STAT3 (Homo sapiens, UniProt P40763)
Assay: Inhibition of STAT3 phosphorylation in BT20 breast tumor cells (western blot)
Type: cell-based
Parameters: endogenous in cells; host or cells: BT20 breast tumor cells
Details: 5 μM; BT-20 cells
Protocol: Inhibition of STAT3 in BT20 Breast Tumor Cells. General procedure: 35 mm petri dishes were plated with 300,000 BT20 cells in 2 mL RPMI1640 media containing 10% FBS, […], streptomycin, and glutamine. Prodrugs were dissolved in DMSO and were added to the cells with fresh media at varying concentrations. After 2 h the cells were washed with ice cold phosphate buffered saline. Washed cells were treated with lysis buffer (50 mM Hepes, pH 7.4, 150 mM NaCl, 1.5 mM MgCl2, 1 mM EGTA, 100 mM NaF, 10 mM sodium pyrophosphate, 10% glycerol, 1% Triton X-100, 1 mM PMSF, 1 mM Na3VO4, 10 μg/mL leupeptin and 10 μg/mL aprotinin). Cell-free detergent extracts were centrifuged at 15,000 rpm in a microcentriguge for 30 min at 4° C. and the protein concentrations of the supernatants determined. Aliquots containing 12 μg of protein were separated on 8% SDS-PAGE and were transferred to PVDF filters. The filters were blocked with 5% bovine serum albumin and were probed with pStat3^Y705 antibody followed by secondary antibody, whose signal was detected with an enhanced chemiluminescence kit (ECL, Amersham, Chicago, Ill.). Filters were stripped with stripping buffer (62.5 mM Tris, pH 6.8, 2% SDS, and 0.1 M 2-mercaptoethanol) at 50° C. for 30 min. Filters were then probed with total Stat3 antibody and visualized with chemiluminescence as above.
Because DMSO is toxic, other formulations were evaluated for potential use in animal models. The compound of Example 1 was dissolved in EtOH, 20% (w/v) Trappsol (hydroxypropyl β-cyclodextran, pharmaceutical grade), or a liposomal formulation to a concentration of 5 mM. These formulations were given to cells at 0.1, 0.5, and 5 μM concentrations. At two hours, cells were lysed and pSTAT3 levels were determined by Western Blot (FIG. 3). Different formulations have little effect on inhibition of STAT3. The compound of Example 1 was dissolved in DMSO, EtOH, Trappsol, or as a 10 mol % mixture in dimyristoylphosphatidyl choline and applied to BT20 cell in culture. After two hours, cells were lysed and pSTAT3 levels determined by Western blot. To prepare liposomes a solution of 1.0 mg of the compound of Example 1, 7.2 mg of DMPC, 0.41 mg of Tween 20 in 1.0 mL of tert-butanol was lyophilized. A control lipid formulation of 7.2 mg of DMPC and 0.41 mg of Tween 20 in 1.0 mL of tert-butanol was lyophilized. These samples were mixed with 236 μL of H2O and were vortexed and sonicated for 5 min.
The compounds are selective for STAT3 over STAT1 in BT20 breast tumor cells. BT20 cells prepared as above and were treated with 5 μM of the compound of Example 1 for two hours then were treated with 25 ng/mL of interferon γ (IFNγ). […] (FIG. 4, bottom panel).
Time course of inhibition of STAT3 phosphorylation in BT20 cells. BT20 cells were plated as above and treated with the compounds from Examples 1 and 6 and western blots were performed at varying time intervals.

T1 sequence (P40763 whole entry): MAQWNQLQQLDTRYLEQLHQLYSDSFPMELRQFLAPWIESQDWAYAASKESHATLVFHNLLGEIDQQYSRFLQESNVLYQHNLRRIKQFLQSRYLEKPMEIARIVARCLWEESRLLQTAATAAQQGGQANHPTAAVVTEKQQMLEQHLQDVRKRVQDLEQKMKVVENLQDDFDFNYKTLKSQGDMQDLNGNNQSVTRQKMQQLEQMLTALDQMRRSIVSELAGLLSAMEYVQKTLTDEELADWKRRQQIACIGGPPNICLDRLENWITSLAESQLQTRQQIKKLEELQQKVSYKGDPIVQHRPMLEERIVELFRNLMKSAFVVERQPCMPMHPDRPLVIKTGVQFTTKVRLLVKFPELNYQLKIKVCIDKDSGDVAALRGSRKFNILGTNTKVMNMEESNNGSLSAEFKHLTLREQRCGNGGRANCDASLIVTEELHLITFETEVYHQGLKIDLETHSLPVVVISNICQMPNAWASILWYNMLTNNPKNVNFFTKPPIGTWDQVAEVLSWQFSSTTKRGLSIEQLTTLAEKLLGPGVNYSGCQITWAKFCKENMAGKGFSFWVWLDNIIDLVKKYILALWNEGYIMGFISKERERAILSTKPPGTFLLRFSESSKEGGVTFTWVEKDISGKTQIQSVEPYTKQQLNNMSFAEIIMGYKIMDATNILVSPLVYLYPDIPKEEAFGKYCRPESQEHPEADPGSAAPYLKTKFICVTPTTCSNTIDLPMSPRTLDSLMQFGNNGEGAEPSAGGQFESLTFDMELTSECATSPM

| SMILES | phosphorylation of STAT3 at the indicated time points |
| --- | --- |
| C/C(=C\C(=O)N[C@H]1CCc2cccc3c2N(C1=O)[C@H](C(=O)N[C@H](C)CCC(N)=O)C3)c1ccc(OP(=O)(OCOC(=O)C(C)(C)C)OCOC(=O)C(C)(C)C)cc1 [Example 6, (2E)-3-[4-[[bis[(2,2-dimethyl-1-oxopropoxy)methoxy]phosphinyl]oxy]phenyl]-but-2-enoyl-Haic-(R)-4-aminopentamide] | inhibit the phosphorylation of STAT3 |

Biological target: T1, STAT3
Assay: Inhibition of Stat3 tyrosine705 phosphorylation in MDA-MB-468 cells
Type: cell-based
Parameters: host or cells: MDA-MB-468 breast tumor cells
Details: prodrug in DMSO, 2 h
Protocol: Inhibition of Stat3 tyrosine705 phosphorylation in MDA-MB-468 cells. MDA-MB-468 breast tumor cells (0.4×10^6) were plated onto 35 mm culture dishes and were allowed to grow overnight. Prodrugs were prepared as 10 mM stock solutions in DMSO and aliquots were added to the culture media to give the correct final concentrations. After 2 h the cells were washed with ice cold phosphate buffered saline. Washed cells were treated with lysis buffer (50 mM Hepes, pH 7.4, 150 mM NaCl, 1.5 mM MgCl2, 1 mM EGTA, 100 mM NaF, 10 mM sodium pyrophosphate, 10% glycerol, 1% Triton X-100, 1 mM PMSF, 1 mM Na3VO4, 10 μg/mL leupeptin and 10 μg/mL aprotinin). Cell-free detergent extracts were centrifuged at 15,000 rpm in a microcentriguge for 30 min at 4° C. and the protein concentrations of the supernatants determined. Aliquots containing 12 μg of protein were separated on 8% SDS-PAGE and were transferred to PVDF filters. The filters were blocked with 5% bovine serum albumin and were probed with pStat3^Y705 antibody followed by secondary antibody, whose signal was detected with an enhanced chemiluminescence kit (ECL, Amersham, Chicago, Ill.). Filters were stripped with stripping buffer (62.5 mM Tris, pH 6.8, 2% SDS, and 0.1 M 2-mercaptoethanol) at 50° C. for 30 min. Filters were then probed with total Stat3 antibody and visualized with chemiluminescence as above.

| SMILES | inhibition of Tyr705 phosphorylation of Stat3 (potency in words) |
| --- | --- |
| CCCC[C@H](NC(=O)/C=C(\C)c1ccc(C(F)(F)P(=O)(OCOC(=O)C(C)(C)C)OCOC(=O)C(C)(C)C)cc1)C(=O)N1C[C@@H]2CC2[C@@H]1C(=O)N[C@@H](CCC(N)=O)[C@@H](C)OCc1ccccc1 (stereo partly drawn) [Example 17, (2E)-3-[4-[[bis[(2,2-dimethyl-1-oxopropoxy)methoxy]phosphinyl]difluoromethyl]phenyl]-but-2-enoyl-norleucinyl-(2R,3S,4R)-methanoprolinyl-(4S,5R)-4-amino-5-benzyloxyhexamide] | very weak inhibitors; also recorded: much less potent |
| CCCC[C@H](NC(=O)/C=C(\C)c1ccc(C(F)(F)P(=O)(OCOC(=O)C(C)(C)C)OCOC(=O)C(C)(C)C)cc1)C(=O)N1C[C@@H]2CC2[C@@H]1C(=O)N[C@H](C)CCC(N)=O (stereo partly drawn) [Example 19, (2E)-3-[4-[[bis[(2,2-dimethyl-1-oxopropoxy)methoxy]phosphinyl]difluoromethyl]phenyl]-but-2-enoyl-norleucinyl-(2R,3S,4R)-methanoprolinyl-(R)-4-aminopentamide] | very weak inhibitors; also recorded: much less potent |
| CCCC[C@H](NC(=O)/C=C(\C)c1ccc(C(F)(F)P(=O)(OCOC(=O)C(C)(C)C)OCOC(=O)C(C)(C)C)cc1)C(=O)N1CC(F)(F)C[C@H]1C(=O)N[C@H](C)CCC(N)=O [Example 24, (2E)-3-[4-[[bis[(2,2-dimethyl-1-oxopropoxy)methoxy]phosphinyl]difluoromethyl]phenyl]-but-2-enoyl-norleucinyl-4,4-difluoroprolinyl-(R)-4-aminopentamide] | inhibit phosphorylation of STAT3 |

Results, then the molecule that gave them:

| inhibition of Tyr705 phosphorylation of Stat3 (potency in words) | SMILES |
| --- | --- |
| inhibit phosphorylation of STAT3 | CCCC[C@H](NC(=O)/C=C(\C)c1ccc(C(F)(F)P(=O)(OCOC(=O)C(C)(C)C)OCOC(=O)C(C)(C)C)cc1)C(=O)N1CCC[C@H]1C(=O)N[C@H](C)CCC(N)=O [Example 23, (2E)-3-[4-[[bis[(2,2-dimethyl-1-oxopropoxy)methoxy]phosphinyl]difluoromethyl]phenyl]-but-2-enoyl-norleucinyl-prolinyl-(R)-4-aminonentamide] |
| inhibit phosphorylation of STAT3 | CCCC[C@H](NC(=O)/C=C(\C)c1ccc(C(F)(F)P(=O)(OCOC(=O)C(C)(C)C)OCOC(=O)C(C)(C)C)cc1)C(=O)N1CC(C)(C)C[C@H]1C(=O)N[C@H](C)CCC(N)=O [Example 25, (2E)-3-[4-[[bis[(2,2-dimethyl-1-oxopropoxy)methoxy]phosphinyl]difluoromethyl]phenyl]-but-2-enoyl-norleucinyl-4,4-dimethylprolinyl-(R)-4-aminopentamide] |
